One assay addresses T1, human μ-opioid receptor (Homo sapiens, UniProt P35372).
T1 construct: expressed in transfected cells; host or cells: CHO-K1
Description: Human μ-opioid receptor radioligand assay ([3H]-DAMGO). Format: binding. An outline of the steps: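 Transfected CHO-K1 membranes (20 μg) incubated with 1 nM [3H]-DAMGO in 50 mM Tris-HCl, 5 mM MgCl2, pH 7.4, 60 min at 27 °C; non-specific binding with 10 μM naloxone. Test compound at five concentrations; bound radioactivity counted after filtration by scintillation.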

Assay [1] has as its target Human α2δ-1 subunit of Cav2.2 calcium channel (Homo sapiens, UniProt P54289). The assay is described as follows: Human α2δ-1 subunit of Cav2.2 calcium channel assay ([3H]-Gabapentin). Format: binding. An outline of the steps:
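α2δ-1-enriched membranes (2.5 μg) were incubated with 15 nM [3H]-gabapentin in 10 mM Hepes-KOH pH 7.4 for 60 min at 27 °C. Non-specific binding was defined with 10 μM pregabalin. Compounds were tested at five concentrations, with filtration and scintillation counting.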

[2] abbreviates: transfected CHO-K1 cell membranes, 1 nM [3H]-DAMGO, read-out: Binding μ (Ki).
The mark [3] stands for this setting: human α2δ-1 enriched membranes, 15 nM [3H]-Gabapentin, read-out: Binding α2δ-1 (Ki).

Structures are written as SMILES. Read-outs that look alike come from different tables or passages of the source. Where only a bound is given, the exact number is not on record here.

Human α2δ-1 subunit of Cav2.2 calcium channel, sequence (P54289 25-1103): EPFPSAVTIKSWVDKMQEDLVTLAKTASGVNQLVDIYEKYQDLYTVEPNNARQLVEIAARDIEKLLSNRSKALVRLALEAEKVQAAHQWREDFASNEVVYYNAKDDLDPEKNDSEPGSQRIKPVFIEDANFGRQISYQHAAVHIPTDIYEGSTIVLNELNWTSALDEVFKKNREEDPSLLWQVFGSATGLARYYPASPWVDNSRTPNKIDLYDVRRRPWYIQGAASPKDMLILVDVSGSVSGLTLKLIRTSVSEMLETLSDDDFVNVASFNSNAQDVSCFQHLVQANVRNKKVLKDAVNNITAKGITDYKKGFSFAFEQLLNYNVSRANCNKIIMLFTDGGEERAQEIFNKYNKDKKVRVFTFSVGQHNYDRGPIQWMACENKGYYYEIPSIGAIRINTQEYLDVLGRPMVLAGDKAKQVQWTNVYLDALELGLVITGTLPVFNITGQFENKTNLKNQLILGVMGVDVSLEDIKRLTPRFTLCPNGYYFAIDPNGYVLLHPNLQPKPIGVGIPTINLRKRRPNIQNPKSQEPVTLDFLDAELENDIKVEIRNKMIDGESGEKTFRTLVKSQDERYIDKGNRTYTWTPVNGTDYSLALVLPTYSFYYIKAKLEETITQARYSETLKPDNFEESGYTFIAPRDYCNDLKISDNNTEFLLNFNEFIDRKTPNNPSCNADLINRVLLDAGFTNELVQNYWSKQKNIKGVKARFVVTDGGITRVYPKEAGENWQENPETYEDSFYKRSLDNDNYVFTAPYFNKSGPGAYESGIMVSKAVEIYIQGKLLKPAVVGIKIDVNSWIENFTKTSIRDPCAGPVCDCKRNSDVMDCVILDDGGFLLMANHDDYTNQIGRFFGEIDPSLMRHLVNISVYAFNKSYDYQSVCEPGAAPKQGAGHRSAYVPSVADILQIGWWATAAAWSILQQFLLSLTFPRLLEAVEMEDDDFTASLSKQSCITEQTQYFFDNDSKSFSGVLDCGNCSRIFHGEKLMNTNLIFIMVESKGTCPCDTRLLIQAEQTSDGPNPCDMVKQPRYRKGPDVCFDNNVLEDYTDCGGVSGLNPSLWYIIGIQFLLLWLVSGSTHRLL
T1 sequence (P35372 whole entry): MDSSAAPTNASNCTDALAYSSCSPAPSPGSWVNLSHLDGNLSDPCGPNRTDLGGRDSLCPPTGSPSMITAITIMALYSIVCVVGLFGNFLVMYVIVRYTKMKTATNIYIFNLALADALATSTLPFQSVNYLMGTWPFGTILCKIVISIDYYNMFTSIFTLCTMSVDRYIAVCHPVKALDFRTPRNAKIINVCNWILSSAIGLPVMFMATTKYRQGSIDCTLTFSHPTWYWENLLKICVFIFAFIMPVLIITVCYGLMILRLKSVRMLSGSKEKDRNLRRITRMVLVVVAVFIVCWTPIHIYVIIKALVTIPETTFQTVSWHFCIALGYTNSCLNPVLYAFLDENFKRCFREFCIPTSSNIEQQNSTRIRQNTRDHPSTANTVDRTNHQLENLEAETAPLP

Take `CNCCC(Oc1cc(NC(C)=O)ccc1-n1nc2c(N(C)C)nnc(C)c2c1C)c1ccccc1` (centres unmarked) [Example 82, N-(4-(7-(dimethylamino)-3,4-dimethyl-2H-pyrazolo[3,4-d]pyridazin-2-yl)-3-(3-(methylamino)-1-phenylpropoxy)phenyl)acetamide]: the Ki on human μ-opioid receptor (setting [2]) was above 500 nM; in assay [1] (setting [3]), 500 to 5000 nM.

For `Cc1nnc(N(C)C)c2nn(-c3ccccc3OC(CCNCCF)c3ccccc3)c(C)c12` (centres unmarked) [Example 73, 2-(2-(3-((2-Fluoroethyl)amino)-1-phenylpropoxy)phenyl)-N,N,3,4-tetramethyl-2H-pyrazolo[3,4-d]pyridazin-7-amine], the Ki on human μ-opioid receptor is below 100 nM; in assay [1] it was 500 to 5000 nM.

As for `CCNCCC(Oc1ccccc1-n1nc2c(N(C)C)nnc(C)c2c1C)c1ccccc1` (centres unmarked) [Example 1, 2-(2-(3-(Ethylamino)-1-phenylpropoxy)phenyl)-N,N,3,4-tetramethyl-2H-pyrazolo[3,4-d]pyridazin-7-amine], the Ki lay in the range of 100 to 500 nM on human μ-opioid receptor and 500 to 5000 nM in assay [1].

In the case of `CNCc1cccc(COc2ccccc2-n2nc3c(N(C)C)nnc(C)c3c2C)c1` [Example 45, N,N,3,4-tetramethyl-2-(2-((3-((methylamino)methyl)benzyl)oxy)phenyl)-2H-pyrazolo[3,4-d]pyridazin-7-amine], the results for the Ki (on human μ-opioid receptor (setting [2]); in assay [1] (setting [3])) were above 500 nM and 500 to 5000 nM, respectively.

Consider `Cc1nnc(N(C)C)c2nn(-c3ccccc3OC(CCNCC(F)F)c3ccccc3)c(C)c12` (centres unmarked) [Example 56, 2-(2-(3-((2,2-difluoroethyl)amino)-1-phenylpropoxy)phenyl)-N,N,3,4-tetramethyl-2H-pyrazolo[3,4-d]pyridazin-7-amine], for which the Ki on human μ-opioid receptor lay in the range of 100 to 500 nM; in assay [1], 500 to 5000 nM.

Take `Cc1nnc(N(C)C)c2nn(-c3ccccc3OCC3CNCc4ccccc43)c(C)c12` (centres unmarked) [Example 30, N,N,3,4-tetramethyl-2-(2-((1,2,3,4-tetrahydroisoquinolin-4-yl)methoxy)phenyl)-2H-pyrazolo[3,4-d]pyridazin-7-amine]: the Ki at human μ-opioid receptor (setting [2]) is above 500 nM; in assay [1] (setting [3]), above 5000 nM.

With `Cc1nnc(N(C)C)c2nn(-c3ccccc3OCCN3CCCC3)c(C)c12` [Example 2, N,N,3,4-tetramethyl-2-(2-(2-(pyrrolidin-1-yl)ethoxy)phenyl)-2H-pyrazolo[3,4-d]pyridazin-7-amine], the Ki on human μ-opioid receptor (setting [2]) is above 500 nM; in assay [1] (setting [3]), above 5000 nM.

For `CNCCC(Oc1ccccc1-n1nc2c(C)nnc(C)c2c1C)c1ccccc1` (centres unmarked) [Example 69, N-methyl-3-phenyl-3-(2-(3,4,7-trimethyl-2H-pyrazolo[3,4-d]pyridazin-2-yl)phenoxy)propan-1-amine], the Ki at human μ-opioid receptor (setting [2]) was above 500 nM; in assay [1] (setting [3]), above 5000 nM.

For `CCOc1cccc(C(CCNC)Oc2ccccc2-n2nc3c(N(C)C)nnc(C)c3c2C)c1` (centres unmarked) [Example 90, 2-(2-(1-(3-ethoxyphenyl)-3-(methylamino)propoxy)phenyl)-N,N,3,4-tetramethyl-2H-pyrazolo[3,4-d]pyridazin-7-amine], the Ki on human μ-opioid receptor (setting [2]) was above 500 nM; in assay [1] (setting [3]) it was 500 to 5000 nM.

Regarding `Cc1nnc(N(C)C)c2nn(-c3ccccc3OC(C)CCNCc3ccccc3)c(C)c12` (centres unmarked) [Example 12, 2-(2-((4-(benzylamino)butan-2-yl)oxy)phenyl)-N,N,3,4-tetramethyl-2H-pyrazolo[3,4-d]pyridazin-7-amine], the Ki was above 500 nM at human μ-opioid receptor (setting [2]) and 500 to 5000 nM in assay [1] (setting [3]).

On to `Cc1nnc(N(C)C)c2nn(-c3ccccc3OC(c3ccccc3)C3CNC3)c(C)c12` (centres unmarked) [Example 34, 2-(2-(azetidin-3-yl(phenyl)methoxy)phenyl)-N,N,3,4-tetramethyl-2H-pyrazolo[3,4-d]pyridazin-7-amine], for which the Ki on human μ-opioid receptor (setting [2]) was above 500 nM; in assay [1] (setting [3]), 500 to 5000 nM.

As to `CNCc1ccccc1COc1ccccc1-n1nc2c(N(C)C)nnc(C)c2c1C` [Example 72, N,N,3,4-Tetramethyl-2-(2-((2-((methylamino)methyl)benzyl)oxy)phenyl)-2H-pyrazolo[3,4-d]pyridazin-7-amine], the Ki at human μ-opioid receptor (setting [2]) is above 500 nM; in assay [1] (setting [3]) it was 500 to 5000 nM.

Take `CNCCC(Oc1ccccc1-n1nc2cnnc(C)c2c1C)c1ccccc1` (centres unmarked) [Example 66, 3-(2-(3,4-Dimethyl-2H-pyrazolo[3,4-d]pyridazin-2-yl)phenoxy)-N-methyl-3-phenylpropan-1-amine]: the Ki at human μ-opioid receptor (setting [2]) is above 500 nM; in assay [1] (setting [3]) it was above 5000 nM.

As to `Cc1nnc(N(C)C)c2nn(-c3ccccc3OC(CCN)c3ccccc3)c(C)c12` (centres unmarked) [Example 38, 2-(2-(3-amino-1-phenylpropoxy)phenyl)-N,N,3,4-tetramethyl-2H-pyrazolo[3,4-d]pyridazin-7-amine], the results for the Ki (on human μ-opioid receptor (setting [2]); in assay [1] (setting [3])) were above 500 nM and 500 to 5000 nM, respectively.

Regarding `CNCCC(Oc1ccccc1-n1nc2c(NCc3ccccc3)nnc(C)c2c1C)c1ccccc1` (centres unmarked) [Example 7, N-benzyl-3,4-dimethyl-2-(2-(3-(methylamino)-1-phenylpropoxy)phenyl)-2H-pyrazolo[3,4-d]pyridazin-7-amine], the Ki is above 500 nM on human μ-opioid receptor (setting [2]) and 500 to 5000 nM in assay [1] (setting [3]).

`CNCC(Oc1ccccc1-n1nc2c(N(C)C)nnc(C)c2c1C)c1ccccc1` (centres unmarked) [Example 67, N,N,3,4-Tetramethyl-2-(2-(2-(methylamino)-1-phenylethoxy)phenyl)-2H-pyrazolo[3,4-d]pyridazin-7-amine]: the Ki was above 500 nM at human μ-opioid receptor (setting [2]) and 500 to 5000 nM in assay [1] (setting [3]).

For the compound `Cc1nnc(N(C)C)c2nn(-c3ccccc3OC3CCN(CCc4ccccc4)C3)c(C)c12` (centres unmarked) [Example 55, N,N,3,4-tetramethyl-2-(2-((1-phenethylpyrrolidin-3-yl)oxy)phenyl)-2H-pyrazolo[3,4-d]pyridazin-7-amine], the results for the inhibition constant (Ki) (on human μ-opioid receptor; in assay [1]) were 100 to 500 nM and 500 to 5000 nM, respectively.

In the case of `CNCCC(Oc1ccccc1-n1nc2c(N(C)C)nnc(C)c2c1C)c1ccc(F)cc1` (centres unmarked) [Example 42, 2-(2-(1-(4-fluorophenyl)-3-(methylamino)propoxy)phenyl)-N,N,3,4-tetramethyl-2H-pyrazolo[3,4-d]pyridazin-7-amine], the values for the Ki (at human μ-opioid receptor; in assay [1]) were above 500 nM and below 500 nM, respectively.

As to `Cc1nnc(N(C)C)c2nn(-c3ccccc3OC3CCN(Cc4ccccc4)C3)c(C)c12` (centres unmarked) [Example 8, 2-(2-((1-benzylpyrrolidin-3-yl)oxy)phenyl)-N,N,3,4-tetramethyl-2H-pyrazolo[3,4-d]pyridazin-7-amine], the Ki is above 500 nM at human μ-opioid receptor (setting [2]) and 500 to 5000 nM in assay [1] (setting [3]).

Regarding `CNCCC(Oc1ccc(OC)cc1-n1nc2c(N(C)C)nnc(C)c2c1C)c1ccccc1` (centres unmarked) [Example 88, 2-(5-methoxy-2-(3-(methylamino)-1-phenylpropoxy)phenyl)-N,N,3,4-tetramethyl-2H-pyrazolo[3,4-d]pyridazin-7-amine], the Ki on human μ-opioid receptor (setting [2]) was above 500 nM; in assay [1] (setting [3]) it was 500 to 5000 nM.

As for `CCNCC[C@@H](Oc1ccccc1-n1nc2c(N(C)C)nnc(C)c2c1C)c1ccccc1` [Example 101, (R)-2-(2-(3-(Ethylamino)-1-phenylpropoxy)phenyl)-N,N,3,4-tetramethyl-2H-pyrazolo[3,4-d]pyridazin-7-amine], the Ki at human μ-opioid receptor fell in the range of 100 to 500 nM; in assay [1], 500 to 5000 nM.

For the compound `CNCCC(Oc1ccccc1-n1nc2c(N(C)C)nnc(C)c2c1C)c1cccc(NC(C)=O)c1` (centres unmarked) [Example 84, N-(3-(1-(2-(7-(dimethylamino)-3,4-dimethyl-2H-pyrazolo[3,4-d]pyridazin-2-yl)phenoxy)-3-(methylamino)propyl)phenyl)acetamide], the Ki at human μ-opioid receptor (setting [2]) is above 500 nM; in assay [1] (setting [3]), 500 to 5000 nM.

The values are drawn from patent US10562908B2, “Ortho substituted phenylpyrazolo- and phenylpyrrolo-pyridazine derivatives having multimodal activity against pain” (priority 2016, dated 2020).
